Columns and labels:
Type in all cases: cell-based
[1] = test system: HuH-7 cells; assay: WST-1 cell viability assay in HuH-7 cells
Procedure: (§1) The fatty acids (FAs) TTA, tr-TTA, N-TTA, tr-N-TTA and (PA) were complexed with FBS following the same procedure, differing only in final stock concentration, due to variation in solubility. Approximately 0.07 g of FA was weighed in a 10 ml sterile serum tube (BD Vacutainer®, catalog no. 368430) and dissolved in sterile filtrated 0.1 M sodium hydroxide (NaOH) of a volume giving 25 mM FA, controls without FA were made, containing only NaOH and FBS. A syringe (Sterican®, catalog no. 4657577) was pierced through the rubber cap of the serum tube, and the tube was placed in an 80° C. water bath until the FAs were dissolved. Each FA-solution was then diluted in inactivated FBS to stock concentration 1 mM (N-TTA, tr-N-TTA), and 2 mM by adding the FA to a volume of 100% FBS after heating the FBS to 45° C. in a water bath. The transfer of FA to FBS had to be executed controlled and swiftly to avoid the formation of precipitates. If any precipitates in the solution were visible, the FA and a new volume of FBS were reheated, and the procedure performed again. Following successful complexation, the stock solutions were stored at −20° C. in 1 ml aliquots (CryoPure tube, Sarstedt AG & Co, Nümbrecht, Germany).
(§2) The WST-1 cell proliferation assay was performed using the kit from Roche (table 4.2.) and its accompanying procedure (version 16, February 2011) (134). The number of cells seeded to each well in the 96-well plates (Corning Inc., catalog no. 353072) varied depending on the treatment time and cell type (table 3.).
(§3) Cell suspension and medium were then transferred to each well in a volume of 100 μl in total. Subsequently, the plates were incubated for 24 hours to make the cells settle. The next day, 100 μl with FA complexed with FBS or diluted in DMSO was added to row A or B in the 96-well plate to give a defined concentration. The solution was then mixed with a pipette, and 100 μl of the medium with FA was transferred to the next well in the same column, mixed by pipetting up and down at least five times before 100 μl was transferred again to the next well in the column. This procedure was repeated until the second last, or last well in each column was reached, making a series of two-fold dilution of the FAs in the cell medium. Two parallels were performed for every treatment per run. After the addition of FAs, the plates were incubated for 24-96 hours depending on the length of the treatment.
(§4) Following the FA-treatment, the cells were studied under a microscope to ensure that visual observations matched the measured absorbance and cell activity in the assay. Subsequently, 10 μl WST-1 reagent was added to each well, and the plates were incubated for 3 hours. Due to high activity in the HuH-7 cell line, the WST-1 reagent was diluted 1:1 with PBS. Before the measurement of absorbance, the plates were placed on a shaker for 1 minute ensuring thoroughly mixing of the wells. The plates were then put straight into the spectrophotometer (SpectraMax Plus 384 Microplate Reader, Molecular Devices Corporation, San Jose, Calif., USA) to perform the measurements. The accompanying software was used (SoftMax Pro, Molecular Devices Corporation, San Jose, Calif., USA) to obtain the results. The absorbance of the samples was measured at 450 nm, and the reference wavelength was set to 650 nm. For each well, the measured absorption at 650 nm was subtracted from the absorption at 450 nm. The measured absorbance for the treated cells was then compared to the controls (blank) containing only cells and growth medium.

[2] = test system: HeLaNRF1/c4 reporter cells; assay: Gene expression (qPCR) in HeLaNRF1/c4 reporter cells; conditions: long-term treatment
Procedure: The HeLaNRF1/c4 reporter cells were employed to investigate effects of the modified fatty acids on NRF1-regulated mitochondrial biogenesis. The cells (250,000) were seeded in T75 flasks and incubated for 3 hours to allow attachment. The compounds were dissolved in DMSO and diluted in culture medium to provide the final concentration. DMSO at a concentration equivalent to the highest compound concentration was added to control cultures. Resveratrol and AICAR were used as positive controls. Resveratrol has not previously been tested in this reporter model, but we found it relevant to include it for purposes of experimental and mechanistic comparisons. After 3 days of treatment the media was replaced with fresh media containing the corresponding compound. On day 5, the cells were harvested and the cultures split into three fractions: One fraction was used for detection of mitoGFP expression by flow cytometry, to assess effects on NRF-1 regulated mitochondrial biogenesis. Flow cytometry analysis was performed as previously described. Another fraction was used for extraction of RNA and subsequent gene expression analysis using quantitative PCR (see below). The last fraction was employed to investigate effects on mitochondrial respiratory function by extracellular flux analysis (described above). The experiment was replicated three times.
Total RNA was extracted from harvested cells (RNAeasy kit Qiagen, Hilden, Germany). The RNA content was quantified on Nanodrop 1000 Spectrophotometer (Thermo Scientific). From 1 μg total RNA, cDNA was synthesized using High-Capacity Reverse Transcription Kit (Applied Biosystems, Carlsbad, Calif., US). Gene quantification was done using TaqMan probes for gene expression assays (Applied Biosystems). Probes used were: PGC1α (PPARG coactivator 1α), Hs00173304_m1; HIF1α (hypoxia inducible factor 1α), Hs00153153_m1; PDK1 (pyruvate dehydrogenase kinase 1), Hs01561847_m1; PDK4, (pyruvate dehydrogenase kinase 4), Hs01037712_m1; SIRT4 (sirtuin 4) Hs01015516_g1; ACOX1 (acyl-CoA oxidase 1) Hs01074241_m1; as reference genes, we used; Eukaryotic 18S rRNA Hs99999901_s1; actin beta Hs99999903_m1. Fold change was calculated as geometric mean of ΔΔCt of the two reference genes.

[3] = test system: SH-SY5Y cells; assay: WST-1 cell viability assay in SH-SY5Y cells; conditions: 4 days, 31-125 μM
Procedure: as §1, §2, §3
as §4, with “The accompanying software was used (SoftMax Pro, Molecular Devices Corporation, San Jose, Calif., USA) to obtain the results.” left out

CCCCCCCCCCCCCCNCC(=O)O [N-TTA, N-tetradecylglycine]
WST-1 activity compared to untreated cells ([1]; 2 days, 16 μM, complexed with FBS): 116% | WST-1 activity compared to no treatment ([1]; 2 days, 125-250 μM): 50-60% | WST-1 activity ([1]; 4 days, 1000 μM): The same result was true | PDK4 expression [2]: significantly increased | PGC1α expression ([2]; vs control): significant increase | WST-1 activity compared to untreated cells [3]: about 110%

Source: patent US20220249525A1, “Fatty Acid Compounds for Prevention and Treatment of Neurodegenerative Disorders” (T OMEGA AS, priority 2019, published 2022)
